Assay results taken from ChEMBL document CHEMBL3769401, “The first potent diphenyl phosphonate KLK4 inhibitors with unexpected binding kinetics” (Medchemcomm, 2015).
Activity calls are given as the source filed them. The calls are words filed in the database; no cut-off is given here.

Tests used:
[1] = target: T1, Kallikrein-4 (Homo sapiens, UniProt Q9Y5K2); experiment: Inhibition of human recombinant KLK4 expressed in Escherichia coli using Bachem I-1120 as substrate preincubated for 15 mins followed by substrate addition by microplate reader analysis
T1 sequence (Q9Y5K2 whole entry): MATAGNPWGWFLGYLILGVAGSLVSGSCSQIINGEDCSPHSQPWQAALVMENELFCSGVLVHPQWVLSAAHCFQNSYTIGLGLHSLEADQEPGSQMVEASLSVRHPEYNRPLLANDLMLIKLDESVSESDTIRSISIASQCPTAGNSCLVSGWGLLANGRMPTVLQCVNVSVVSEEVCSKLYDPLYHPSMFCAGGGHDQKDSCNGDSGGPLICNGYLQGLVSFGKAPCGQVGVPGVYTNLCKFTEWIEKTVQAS

[2] = target: T2, Kallikrein-2 (Homo sapiens, UniProt P20151); experiment: Inhibition of human recombinant KLK2 expressed in Escherichia coli using Bachem I-1295 as substrate preincubated for 15 mins followed by substrate addition by microplate reader analysis
T2 sequence (P20151 whole entry): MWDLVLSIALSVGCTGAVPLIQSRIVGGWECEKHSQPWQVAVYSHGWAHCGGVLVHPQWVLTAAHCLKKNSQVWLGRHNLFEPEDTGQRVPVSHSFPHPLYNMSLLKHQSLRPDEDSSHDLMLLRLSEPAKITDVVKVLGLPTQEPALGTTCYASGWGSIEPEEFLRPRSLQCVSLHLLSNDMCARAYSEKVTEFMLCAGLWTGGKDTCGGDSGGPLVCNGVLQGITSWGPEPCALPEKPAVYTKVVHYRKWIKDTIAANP

[3] = target: Plasminogen (Homo sapiens, UniProt P00747); experiment: Inhibition of human plasma plasmin using Biophen CS-21(66) as substrate; type: cell-free
Sequence of Plasminogen (P00747 97-580 limits assumed): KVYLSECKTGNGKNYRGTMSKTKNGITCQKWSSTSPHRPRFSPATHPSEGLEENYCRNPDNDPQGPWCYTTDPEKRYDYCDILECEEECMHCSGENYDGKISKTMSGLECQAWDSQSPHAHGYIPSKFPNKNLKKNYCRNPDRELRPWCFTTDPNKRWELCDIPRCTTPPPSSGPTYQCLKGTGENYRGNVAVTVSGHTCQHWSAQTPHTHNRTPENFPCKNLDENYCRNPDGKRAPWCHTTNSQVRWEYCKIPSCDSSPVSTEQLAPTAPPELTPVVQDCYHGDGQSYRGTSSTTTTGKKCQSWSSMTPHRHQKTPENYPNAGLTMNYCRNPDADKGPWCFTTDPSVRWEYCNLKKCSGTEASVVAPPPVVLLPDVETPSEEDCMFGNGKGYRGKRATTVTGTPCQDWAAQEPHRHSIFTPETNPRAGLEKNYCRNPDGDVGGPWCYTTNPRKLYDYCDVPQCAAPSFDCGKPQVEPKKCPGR
Sequence of Plasminogen (P00747 581-810 limits assumed): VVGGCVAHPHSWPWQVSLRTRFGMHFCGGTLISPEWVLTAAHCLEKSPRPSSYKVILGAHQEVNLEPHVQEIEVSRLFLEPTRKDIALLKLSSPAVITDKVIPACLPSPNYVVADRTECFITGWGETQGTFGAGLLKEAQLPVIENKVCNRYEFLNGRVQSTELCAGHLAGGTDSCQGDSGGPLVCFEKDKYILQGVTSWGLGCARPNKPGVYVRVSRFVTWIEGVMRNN

[4] = target: T3, Kallikrein-1 (Homo sapiens, UniProt P06870); experiment: Inhibition of human recombinant KLK1 expressed in Escherichia coli using Bachem I-1295 as substrate preincubated for 15 mins followed by substrate addition by microplate reader analysis
Target sequence in this assay (P06870 whole entry): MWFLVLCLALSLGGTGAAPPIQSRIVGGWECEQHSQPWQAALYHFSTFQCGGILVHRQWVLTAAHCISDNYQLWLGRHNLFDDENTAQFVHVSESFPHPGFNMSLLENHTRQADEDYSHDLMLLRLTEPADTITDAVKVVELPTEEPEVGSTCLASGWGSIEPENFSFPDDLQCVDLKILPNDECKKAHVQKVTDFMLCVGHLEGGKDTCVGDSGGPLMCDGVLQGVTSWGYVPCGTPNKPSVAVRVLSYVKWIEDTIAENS

[5] = target: Coagulation factor X (Homo sapiens, UniProt P00742); experiment: Inhibition of factor 10a (unknown origin) using Biophen CS-11(32) as substrate
Sequence of Coagulation factor X (P00742 41-179 limits assumed): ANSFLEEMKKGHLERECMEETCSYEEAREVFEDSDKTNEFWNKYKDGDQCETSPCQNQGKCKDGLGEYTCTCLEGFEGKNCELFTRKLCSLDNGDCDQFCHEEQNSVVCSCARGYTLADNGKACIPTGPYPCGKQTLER
Sequence of Coagulation factor X (P00742 235-488 limits assumed): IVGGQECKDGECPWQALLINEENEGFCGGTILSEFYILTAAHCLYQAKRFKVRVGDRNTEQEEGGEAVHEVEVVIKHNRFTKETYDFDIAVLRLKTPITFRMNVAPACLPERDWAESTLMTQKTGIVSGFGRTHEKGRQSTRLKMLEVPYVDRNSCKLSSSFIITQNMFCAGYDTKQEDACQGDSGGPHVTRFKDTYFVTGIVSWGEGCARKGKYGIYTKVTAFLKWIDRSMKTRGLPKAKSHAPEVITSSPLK

[6] = target: Acetylcholinesterase (Electrophorus electricus, UniProt O42275); experiment: Inhibition of Electrophorus electricus AChE using acetylthiocholine iodide as substrate by 5-5'-Dithiobis(2 nitrobenzoic acid)-based assay
Sequence of Acetylcholinesterase (O42275 whole entry): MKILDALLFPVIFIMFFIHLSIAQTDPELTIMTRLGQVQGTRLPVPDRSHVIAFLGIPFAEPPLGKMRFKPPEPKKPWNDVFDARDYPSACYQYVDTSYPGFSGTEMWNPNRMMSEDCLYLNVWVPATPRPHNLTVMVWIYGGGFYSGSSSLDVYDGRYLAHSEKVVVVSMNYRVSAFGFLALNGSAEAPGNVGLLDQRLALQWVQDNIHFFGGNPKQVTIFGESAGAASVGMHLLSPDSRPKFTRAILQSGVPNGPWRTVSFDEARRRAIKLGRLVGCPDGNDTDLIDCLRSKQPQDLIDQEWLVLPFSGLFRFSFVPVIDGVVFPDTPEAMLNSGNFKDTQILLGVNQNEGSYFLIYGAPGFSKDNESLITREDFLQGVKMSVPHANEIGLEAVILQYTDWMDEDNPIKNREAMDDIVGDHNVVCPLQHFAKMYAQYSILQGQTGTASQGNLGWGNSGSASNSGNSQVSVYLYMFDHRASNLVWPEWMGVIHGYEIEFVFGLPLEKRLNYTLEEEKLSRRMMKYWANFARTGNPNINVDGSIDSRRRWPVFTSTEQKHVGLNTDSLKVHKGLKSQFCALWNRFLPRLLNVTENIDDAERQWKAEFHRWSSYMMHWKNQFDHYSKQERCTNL

[7] = target: Urokinase-type plasminogen activator (Homo sapiens, UniProt P00749); experiment: Inhibition of recombinant uPA (unknown origin) using Biophen CS-61(44) as substrate
[8] = target: T4, Kallikrein-8 (Homo sapiens, UniProt O60259); experiment: Inhibition of human recombinant KLK8 expressed in Escherichia coli using Bachem I-1120 as substrate preincubated for 15 mins followed by substrate addition by microplate reader analysis
T4 sequence (O60259 whole entry): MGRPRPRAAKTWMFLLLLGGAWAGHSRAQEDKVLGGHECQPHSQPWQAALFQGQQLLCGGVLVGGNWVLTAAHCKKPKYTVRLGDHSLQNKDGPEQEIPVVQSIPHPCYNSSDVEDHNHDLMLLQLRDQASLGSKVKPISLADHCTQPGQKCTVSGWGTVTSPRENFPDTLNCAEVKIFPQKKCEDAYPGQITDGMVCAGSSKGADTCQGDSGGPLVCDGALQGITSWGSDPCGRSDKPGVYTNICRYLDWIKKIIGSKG

[9] = target: T5, Prothrombin (Homo sapiens, UniProt P00734); experiment: Inhibition of human plasma thrombin using Biophen CS-21(66) as substrate preincubated for 15 mins followed by substrate addition by microplate reader analysis; type: cell-free
[10] = target: Tissue-type plasminogen activator (Homo sapiens, UniProt P00750); experiment: Inhibition of recombinant tPA (unknown origin) using Biophen CS-05(88) as substrate
Sequence of Tissue-type plasminogen activator (P00750 whole entry): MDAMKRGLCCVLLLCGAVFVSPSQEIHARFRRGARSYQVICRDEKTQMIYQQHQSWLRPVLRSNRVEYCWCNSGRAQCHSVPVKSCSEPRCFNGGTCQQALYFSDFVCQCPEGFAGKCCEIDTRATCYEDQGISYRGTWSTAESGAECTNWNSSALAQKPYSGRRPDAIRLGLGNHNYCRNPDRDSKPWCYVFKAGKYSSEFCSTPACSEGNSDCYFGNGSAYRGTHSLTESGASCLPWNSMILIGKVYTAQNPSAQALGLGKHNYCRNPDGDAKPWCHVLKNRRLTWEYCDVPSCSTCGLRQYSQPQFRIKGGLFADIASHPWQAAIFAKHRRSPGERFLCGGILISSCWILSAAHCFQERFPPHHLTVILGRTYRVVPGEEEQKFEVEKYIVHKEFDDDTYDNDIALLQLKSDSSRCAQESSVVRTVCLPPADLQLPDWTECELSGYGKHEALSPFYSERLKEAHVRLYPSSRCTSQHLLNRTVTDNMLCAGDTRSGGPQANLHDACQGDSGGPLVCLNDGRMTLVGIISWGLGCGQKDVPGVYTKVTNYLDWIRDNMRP

[11] = target: T1, Kallikrein-4; experiment: Reversible inhibition of human recombinant KLK4 expressed in Escherichia coli using Bachem I-1120 as fluorogenic substrate at 100 times IC50 preincubated for 15 mins followed by 100 fold dilution measured for 1 hr by microplate reader analysis
[12] = target: T5, Prothrombin; experiment: Reversible inhibition of human thrombin using Biophen CS-21(66) as substrate at 100 times IC50 preincubated for 15 mins followed by 100 fold dilution measured for 1 hr
[13] = species on record: Homo sapiens; experiment: Selectivity ratio of IC50 for human recombinant KLK8 to IC50 for human recombinant KLK4
[14] = species on record: Homo sapiens; experiment: Selectivity ratio of IC50 for human recombinant KLK2 to IC50 for human recombinant KLK4
[15] = species on record: Homo sapiens; experiment: Selectivity ratio of IC50 for factor 10a (unknown origin) to IC50 for human recombinant KLK4
[16] = species on record: Homo sapiens; experiment: Selectivity ratio of IC50 for recombinant uPA (unknown origin) to IC50 for human recombinant KLK4
[17] = target: T6, Kallikrein-2 (Homo sapiens) (UniProt P20151); experiment: Reversible inhibition of human recombinant KLK2 expressed in Escherichia coli using H-Pro-Phe-Arg-AMC as fluorogenic substrate at 100 times IC50 preincubated for 15 mins followed by 100 fold dilution measured for 1 hr
T6 sequence (whole entry): T2 sequence (P20151 whole entry)

[18] = species on record: Homo sapiens; experiment: Selectivity ratio of IC50 for recombinant tPA (unknown origin) to IC50 for human recombinant KLK4
[19] = species on record: Homo sapiens; experiment: Selectivity ratio of IC50 for human plasma thrombin to IC50 for human recombinant KLK4
[20] = species on record: Homo sapiens; experiment: Selectivity ratio of IC50 for human plasma plasmin to IC50 for human recombinant KLK4
[21] = Selectivity ratio of IC50 for Electrophorus electricus AChE to IC50 for human recombinant KLK4
[22] = species on record: Homo sapiens; experiment: Selectivity ratio of IC50 for human recombinant KLK1 to IC50 for human recombinant KLK4
[23] = target: T3, Kallikrein-1; experiment: Reversible inhibition of human recombinant KLK1 expressed in Escherichia coli using H-Pro-Phe-Arg-AMC as fluorogenic substrate at 100 times IC50 preincubated for 15 mins followed by 100 fold dilution measured for 1 hr
Target sequence in this assay (P06870 25-262 limits assumed): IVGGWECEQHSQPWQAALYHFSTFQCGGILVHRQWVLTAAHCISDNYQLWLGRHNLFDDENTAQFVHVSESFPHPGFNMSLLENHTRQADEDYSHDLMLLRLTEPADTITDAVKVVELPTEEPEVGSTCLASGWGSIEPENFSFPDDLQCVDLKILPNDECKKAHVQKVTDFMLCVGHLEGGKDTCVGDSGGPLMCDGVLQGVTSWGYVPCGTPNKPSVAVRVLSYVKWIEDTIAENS

[24] = target: T7, Subtilisin Carlsberg (Bacillus licheniformis) (UniProt P00780); experiment: Inhibition of Bacillus licheniformis subtilisin using Suc-Ala-Ala-Pro-Phe-AMC as substrate by spectrofluorometry
T7 sequence (whole entry): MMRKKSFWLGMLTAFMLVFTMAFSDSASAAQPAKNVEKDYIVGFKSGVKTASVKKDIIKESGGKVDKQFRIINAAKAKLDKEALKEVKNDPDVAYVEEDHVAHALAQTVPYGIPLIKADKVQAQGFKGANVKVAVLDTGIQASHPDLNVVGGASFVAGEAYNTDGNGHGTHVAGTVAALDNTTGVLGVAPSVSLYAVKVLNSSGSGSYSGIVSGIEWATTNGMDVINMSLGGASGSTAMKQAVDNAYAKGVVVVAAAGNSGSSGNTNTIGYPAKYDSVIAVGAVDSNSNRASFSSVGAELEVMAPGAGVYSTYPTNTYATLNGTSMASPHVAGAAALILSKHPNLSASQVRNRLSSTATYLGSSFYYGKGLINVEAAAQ

[25] = target: T3, Kallikrein-1; experiment: Irreversible inhibition of human recombinant KLK1 expressed in Escherichia coli using H-Pro-Phe-Arg-AMC as fluorogenic substrate at 100 times IC50 preincubated for 15 mins followed by 100 fold dilution measured for 1 hr
Target sequence in this assay (P06870 25-262 limits assumed): as the sequence (P06870 25-262 limits assumed) above

[26] = target: T8, Kallikrein-8 (Homo sapiens) (UniProt O60259); experiment: Reversible inhibition of human recombinant KLK8 expressed in Escherichia coli using Boc-Val-Pro-Arg-AMC as fluorogenic substrate at 100 times IC50 preincubated for 15 mins followed by 100 fold dilution measured for 1 hr
T8 sequence (whole entry): T4 sequence (O60259 whole entry)

[27] = target: T8, Kallikrein-8 (Homo sapiens); experiment: Irreversible inhibition of human recombinant KLK8 expressed in Escherichia coli using Boc-Val-Pro-Arg-AMC as fluorogenic substrate at 100 times IC50 preincubated for 15 mins followed by 100 fold dilution measured for 1 hr
[28] = target: T6, Kallikrein-2 (Homo sapiens); experiment: Irreversible inhibition of human recombinant KLK2 expressed in Escherichia coli using H-Pro-Phe-Arg-AMC as fluorogenic substrate at 100 times IC50 preincubated for 15 mins followed by 100 fold dilution measured for 1 hr

SMILES | IC50 [1] [µM] | IC50 [2] [µM] | IC50 [3] [µM] | IC50 [4] [µM] | IC50 [5] [µM] | IC50 [6] [µM] | IC50 [7] [µM] | IC50 [8] [µM] | IC50 [9] [µM] | IC50 [10] [µM] | reversible inhibition (activity call) [11] | further results
Nc1ccc(C(NC(=O)OCc2ccccc2)P(=O)(Oc2ccccc2)Oc2ccccc2)cc1 (stereo not given) | > 10 | > 2.5 | > 10 | > 10 | > 10 | > 10 | > 10 | > 10 | > 10 | > 10 |  | 
N=C(N)NCCCC(NC(=O)OCc1ccccc1)P(=O)(Oc1ccccc1)Oc1ccccc1 (stereo not given) | 0.04 | > 2.5 |  | 0.82 | > 10 | > 10 |  | 0.125 | 0.8 |  | Active | inhibition [12]: Active
Nc1ccc(CC(NC(=O)OCc2ccccc2)P(=O)(Oc2ccccc2)Oc2ccccc2)cc1 (stereo not given) | > 10 | > 10 |  | > 10 | > 10 |  | 19.8 | > 10 | 62 | 32 |  | 
N=C(N)Nc1ccc(C(NC(=O)OCc2ccccc2)P(=O)(Oc2ccccc2)Oc2ccccc2)cc1 (stereo not given) | 0.0034 | 0.22 | 4.9 | 0.24 | 3.6 | > 10 | 2.7 | 1.16 | 250 | 250 | Active | Ratio IC50 [13]: > 300; Ratio IC50 [14]: 70; Ratio IC50 [15]: > 300; Ratio IC50 [16]: > 300; inhibition [17]: Active; Ratio IC50 [18]: > 300; Ratio IC50 [19]: > 300; Ratio IC50 [20]: > 300; Ratio IC50 [21]: > 300; Ratio IC50 [22]: 70; inhibition [23]: Active
CC(C)[C@H](NC(=O)OC(C)(C)C)C(=O)N1CCC[C@H]1C(=O)N[C@H](Cc1ccccc1)P(=O)(Oc1ccc(CS)cc1)Oc1ccc(CS)cc1 |  |  |  |  |  |  |  |  |  |  |  | Kapp [24]: 1 ×10⁵ /M/s
N=C(N)c1ccc(CCC(NC(=O)OCc2ccccc2)P(=O)(Oc2ccccc2)Oc2ccccc2)cc1 (stereo not given) | 0.015 | 0.72 |  | 1.37 |  | > 20 |  | 5 |  |  | Active | inhibition [17]: Active
O=C(NC(c1ccc(O)cc1)P(=O)(Oc1ccccc1)Oc1ccccc1)OCc1ccccc1 (stereo not given) | > 10 | > 2.5 | > 10 | 0.086 | > 10 | > 10 | > 10 | > 10 | > 10 | > 10 |  | inhibition [25]: Active
N=C(N)Nc1ccc(CC(NC(=O)OCc2ccccc2)P(=O)(Oc2ccccc2)Oc2ccccc2)cc1 (stereo not given) |  | 0.53 |  | > 10 | > 10 | > 20 |  | 0.17 |  |  | Active | inhibition [12]: Active; inhibition [17]: Active; inhibition [26]: Active
N=C(N)c1ccc(C(NC(=O)OCc2ccccc2)P(=O)(Oc2ccccc2)Oc2ccccc2)cc1 (stereo not given) | 0.041 | > 2.5 | > 2.5 | > 2.5 | > 2.5 | > 10 |  | 0.79 | 0.196 | > 2.5 | Active | inhibition [12]: Active; inhibition [27]: Active
N=C(N)Nc1ccc(CP(=O)(Oc2ccccc2)Oc2ccccc2)cc1 | 0.25 | 2.44 | > 10 | > 2.5 | > 10 | > 10 | 1.4 | 1.44 | > 10 | > 10 | Active | inhibition [28]: Active; inhibition [26]: Active
N=C(N)Nc1ccc(CCP(=O)(Oc2ccccc2)Oc2ccccc2)cc1 | 0.08 | 3.02 | > 10 | > 2.5 | > 10 | > 10 | 0.0079 | 0.17 | > 10 | > 10 | Active | inhibition [28]: Active; inhibition [26]: Active
NCCCC(NC(=O)OCc1ccccc1)P(=O)(Oc1ccccc1)Oc1ccccc1 (stereo not given) | > 2.5 | > 2.5 | > 250 | > 10 | > 250 | > 10 | > 250 | > 10 | > 2.5 | > 2.5 |  | 
